Measurements published in the RepoRT retention time repository.

assay: HILIC, Waters ACQUITY UPLC BEH Amide, 100 × 2.1 mm, 1.7 µm; A: water + 0.125% formic acid + 10 mM ammonium formate; B: 5% water + 95% acetonitrile + 0.125% formic acid + 10 mM ammonium formate; gradient (min/%B) 0/100 2/100 7.7/70 9.5/40 10.25/30 12.75/100 17/100; conditions: stereoisomer not certain

LC retention time [min] | Compound
7.3 | O=c1[nH]c(=O)c2ncn(C3OC(CO)C(O)C3O)c2[nH]1 (centres undefined) [Xanthosine]
7.35 | Nc1c(O)cccc1C(=O)CC(N)C(=O)O (centres undefined) [3-Hydroxykynurenine]
1.21 | NC(=O)N1c2ccccc2C=Cc2ccccc21 [Carbamazepine]
3.69 | O=C(O)C=Cc1cnc[nH]1 [Urocanic acid]
0.94 | COCCOC(=O)C1=C(C)NC(C)=C(C(=O)OC(C)C)C1c1cccc([N+](=O)[O-])c1 (centres undefined) [Nimodipine]
6.4 | Nc1nc2nc[nH]c2c(=O)[nH]1 [Guanine]
1.03 | O=[N+]([O-])c1cccc2cn[nH]c12 [7-Nitroindazole]
2.49 | O=c1[nH]c(=O)c2nccnc2[nH]1 [Lumazine]
7.49 | Nc1ccc(C(=O)O)cc1 [4-Aminobenzoic acid]
0.97 | CC(=O)C1CCC2C3CCC4=CC(=O)CCC4(C)C3CCC12C (centres undefined) [Progesterone]
1.24 | CCOc1cc(N)c(Cl)cc1C(=O)NCC1CN(Cc2ccc(F)cc2)CCO1 (centres undefined) [Mosapride]
2.02 | CN1C(=O)C(O)CC1c1cccnc1 (stereo not drawn) [trans-3'-Hydroxycotinine]
6.4 | Nc1nc2c(ncn2C2CC(O)C(CO)O2)c(=O)[nH]1 (centres undefined) [2'-Deoxyguanosine]
3.75 | COc1cc2nc(N3CCN(C(=O)c4ccco4)CC3)nc(N)c2cc1OC [Prazosin]
1.26 | O=c1cc(-c2ccccc2)oc2ccc(O)cc12 [6-Hydroxyflavone]
1.08 | COc1ccc2c(c1)c(CC(=O)O)c(C)n2C(=O)c1ccc(Cl)cc1 [Indomethacin]
1.54 | Cn1c(=O)c2[nH]cnc2n(C)c1=O [Theophylline]
1.13 | NC(=O)N1c2ccccc2CC(=O)c2ccccc21 [Trileptal]

LC retention time [min] | Compound
9.47 | CNC(Cc1cnc[nH]1)C(=O)O (centres undefined) [N-Methylhistidine]
2.56 | CC12CCC(=O)C=C1CCC1C2C(O)CC2(C)C1CCC2(O)C(=O)CO (centres undefined) [Hydrocortisone]
3.52 | Cc1nc2n(c(=O)c1CCN1CCC(c3noc4cc(F)ccc34)CC1)CCCC2 [Risperidone]
1.15 | O=C1CCC(=O)CC1 [1,4-Cyclohexanedione]
2.44 | c1ncc2[nH]cnc2n1 [Purine]
5.86 | O=C(O)CNC(=O)c1ccc(O)cc1 [4-Hydroxyhippuric acid]
4.31 | O=c1cnn(C2OC(CO)C(O)C2O)c(=O)[nH]1 (centres undefined) [6-Azuridine]
1.57 | CC1CNC(=O)NC1=O (centres undefined) [5,6-Dihydro-5-methyluracil]
1.32 | Cc1occc(=O)c1O [Maltol]
1.21 | COc1ccnc(CS(=O)c2nc3ccc(OC(F)F)cc3[nH]2)c1OC (centres undefined) [Pantoprazole]
9.49 | Cn1cncc1CC(NC(=O)CCN)C(=O)O (centres undefined) [Anserine]
2.21 | CN1CCN(c2nc3cc(C(F)(F)F)ccc3n3cccc23)CC1
5.61 | NC(C(=O)NC1C(=O)N2C(C(=O)O)=C(Cl)CSC12)c1ccccc1 (centres undefined) [Cefaclor]
1 | CC(=O)Oc1ccccc1C(=O)Nc1ncc([N+](=O)[O-])s1 [Nitazoxanide]
1.16 | COC(=O)Nc1nc2ccc(C(=O)c3ccc(F)cc3)cc2[nH]1 [Flubendazole]
1.29 | CC(C)CC1NC(=O)C2CCCN2C1=O (centres undefined) [Cyclo(Leu-Pro)]
1.53 | Cc1ccc(C(C)C)c(O)c1 [Thymol]
1.03 | Nc1nc2ccc(OC(F)(F)F)cc2s1 [Riluzole]

Further lines, the compound ahead of its results:

Compound | LC retention time [min]
CCC(O)CC(=O)O (centres undefined) [3-Hydroxyvaleric acid] | 1.29
O=c1c(-c2ccc(O)cc2)coc2cc(O)ccc12 [Daidzein] | 1.39
NCCc1ccc(O)c(O)c1 [Dopamine] | 6.4
CN1CCC(c2ccc(F)cc2)C(COc2ccc3c(c2)OCO3)C1 (centres undefined) [N-Methylparoxetine] | 2.2
CC(=O)NCCCCNCCCN [N8-Acetylspermidine] | 8.87
CNC1CCC(c2ccc(Cl)c(Cl)c2)c2ccccc21 (centres undefined) [Sertraline] | 2.74
O=Cc1cccc(O)c1 [3-Hydroxybenzaldehyde] | 1.18
CC(C)N=c1cc2n(-c3ccc(Cl)cc3)c3ccccc3nc-2cc1Nc1ccc(Cl)cc1 [Clofazimine] | 1.78
NCCCCC(N)C(=O)NCC(=O)O (centres undefined) [Lys-Gly] | 9.84
O=C(O)CCNC(=O)c1ccc(N=Nc2ccc(O)c(C(=O)O)c2)cc1 [Balsalazide] | 4.85
CC(C)(C)NCC(O)c1ccc(O)c(CO)c1 (centres undefined) [Albuterol] | 5.55
NC(Cc1ccc(O)c(Cl)c1)C(=O)O (centres undefined) [3-Chlorotyrosine] | 7.13
NC(CSCC(=O)O)C(=O)O (centres undefined) [Carbocysteine] | 9.04
COC(=O)N1CCN(C(=O)Cc2ccc(Cl)c(Cl)c2)C(CN2CCCC2)C1 (centres undefined) | 2.56
CC(Cc1ccccc1)N(C)Cc1ccccc1 (centres undefined) [Benzphetamine] | 2.03
CCCC(N)C(=O)O (centres undefined) [Norvaline] | 4.89
CC(=O)Nc1ccccc1 [Acetanilide] | 1.11
CC(=O)NC(CCCN)C(=O)O [N-alpha-Acetyl-L-ornithine] | 8.31
CC1OC(OC2C(Oc3cc(O)c4c(c3)OC(c3ccc(O)cc3)CC4=O)OC(CO)C(O)C2O)C(O)C(O)C1O (centres undefined) [Naringin] | 5.61
NC(CC(=O)O)C(=O)NC(Cc1ccccc1)C(=O)O (centres undefined) [Asp-Phe] | 8.14

Compound | LC retention time [min]
NC1CCN(c2cccc(Cl)n2)CC1 | 4.85
NC(CSSCC(N)C(=O)O)C(=O)O (centres undefined) [Cystine] | 9.97
CCCN1CC(CSC)CC2c3cccc4[nH]cc(c34)CC21 (centres undefined) [Pergolide] | 2.41
NC1C(O)OC(CO)C(O)C1O (centres undefined) [Galactosamine] | 8.44
CC(NC(=O)C(Cc1ccc(O)cc1)NC(=O)CN)C(=O)O (stereo not drawn) [Gly-Tyr-Ala] | 7.89
NC(CCC(=O)NC(CS)C(=O)NCC(=O)O)C(=O)O (centres undefined) [Glutathione (reduced)] | 9.07
CC(C)C1CCC(C(=O)NC(Cc2ccccc2)C(=O)O)CC1 (centres undefined) [Nateglinide] | 1.3
CCC(C)C(NC)C(=O)O (centres undefined) [N-Methylisoleucine] | 6.44
COc1ccc2[nH]cc(C3=CCNCC3)c2c1 | 4.61
CC(=O)OCC[C@H](N)C(=O)O [O-Acetyl-L-homoserine] | 7.6
NC(=O)CCC(NC(=O)Cc1ccccc1)C(=O)O (centres undefined) [Phenylacetylglutamine] | 6.03
C=COC(N)=O [Vinyl Carbamate] | 1.34
CNC[C@H](N)C(=O)O [beta-N-Methylaminoalanine] | 9.32
CC(C)CCCC(C)C1CCC2C3C(O)C=C4CC(O)CCC4(C)C3CCC12C (stereo not drawn) [5-Cholesten-3-beta-7-alpha-diol] | 3.36
NC(Cc1ccc(O)cc1)C(=O)NC(Cc1ccc(O)cc1)C(=O)O (centres undefined) [Tyr-Tyr] | 7.38
NC(N)=NCC(=O)O [Guanidinoacetic acid] | 8.16
CC12CC(=O)C3C(CCC4=CC(=O)CCC43C)C1CCC2=O (centres undefined) [Adrenosterone] | 1.1
CCC1(O)CC2CN(CCc3c([nH]c4ccccc34)C(C(=O)OC)(c3cc4c(cc3OC)N(C=O)C3C(O)(C(=O)OC)C(OC(C)=O)C5(CC)C=CCN6CCC43C65)C2)C1 (centres undefined) [Vincristine] | 3.7
CC(c1cc2ccccc2s1)N(O)C(N)=O (centres undefined) [Zileuton] | 1.23
CN(C)CCOC(C)(c1ccccc1)c1ccccn1 (centres undefined) [Doxylamine] | 2.45

Compound | LC retention time [min]
C[N+](C)(C)CC(=O)[O-] [Betaine] | 7.24
CC1NCCOC1c1ccccc1 (centres undefined) [Phenmetrazine] | 4.04
CC1OC(OC2C(CO)OC(OC3C(CO)OC(O)C(O)C3O)C(O)C2O)C(O)C(O)C1NC1C=C(CO)C(O)C(O)C1O (centres undefined) [Acarbose] | 9.88
COc1ccc(-c2oc3c(CC=C(C)C)c(OC4OC(CO)C(O)C(O)C4O)cc(O)c3c(=O)c2OC2OC(C)C(O)C(O)C2O)cc1 (centres undefined) [Icarin] | 4.74
CC1OC(Oc2c(-c3ccc(O)c(O)c3)oc3cc(O)cc(O)c3c2=O)C(O)C(O)C1O (centres undefined) [Quercetin-3-ramnoside] | 4.7
CCCC(C)(COC(N)=O)COC(N)=O [Meprobamate] | 1.25
CC(O)(CS(=O)(=O)c1ccc(F)cc1)C(=O)Nc1ccc(C#N)c(C(F)(F)F)c1 (centres undefined) [Bicalutamide] | 0.99
CC12CC3CC(C)(C1)CC(N)(C3)C2 [Memantine] | 4.24
COc1cc(C(=O)NS(=O)(=O)c2ccccc2C)ccc1Cc1cn(C)c2ccc(NC(=O)OC3CCCC3)cc12 [Zafirlukast] | 1
CN1CCC2(c3cccc(O)c3)Cc3nc4ccccc4cc3CC2C1 (centres undefined) | 5.11
COc1ccc(OC)c(C(O)C(C)N)c1 (centres undefined) [Methoxamine] | 4.75
O=C1Nc2ccc(Cl)cc2C(c2ccccc2Cl)=NC1O (centres undefined) [Lorazepam] | 1.33
Nc1ccccc1O [2-Aminophenol] | 1.22
COC(=O)C(N)Cc1ccc(O)cc1 (centres undefined) [Methyltyrosinate] | 4.23
CC(=O)CCCC(=O)O [4-Acetylbutyric acid] | 1.24
CC(O)C(N)=O (centres undefined) [Lactamide] | 1.74
CC(=O)NC1C(O)OC(CO)C(O)C1O (centres undefined) [N-Acetylmannosamine] | 7.01
NC(CCSCC(N)C(=O)O)C(=O)O (centres undefined) [Cystathionine] | 9.91
